We go through two compounds from PMC13286573, “Exploration of precision coregulator TR-FRET identifies diverse signatures for LXR ligands relevant to discovery of nonlipogenic ABCA1 inducers” (eLife, 2026).

Entries after “also recorded” stand apart in the source; their conditions may differ. Read-outs that look alike come from different tables or passages of the source.

Test [1] concerns the target T1, LXRα (Homo sapiens, UniProt Q13133).
T1 sequence (Q13133 209-447 limits assumed): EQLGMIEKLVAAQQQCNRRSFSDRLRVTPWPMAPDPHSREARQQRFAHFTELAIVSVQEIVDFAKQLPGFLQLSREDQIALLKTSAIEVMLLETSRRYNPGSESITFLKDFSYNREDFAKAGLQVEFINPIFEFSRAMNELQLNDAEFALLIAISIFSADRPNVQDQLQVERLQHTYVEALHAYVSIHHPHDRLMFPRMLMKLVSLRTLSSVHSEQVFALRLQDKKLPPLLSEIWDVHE
Kind of test: SRC-1 coactivator recruitment to LXRα, coregulator TR-FRET (CRT). Also noted: The CRT selectivity assay incorporates GST-tagged LXR-LBD; purchased Thermo Fisher Scientific PV4657. Particulars: in the presence of 24HC (3 µM). The format is biochemical. Background: TR-FRET usually uses a lanthanide donor and a delayed reading to cut background.

The target in the next test is T2, LXRβ (Homo sapiens, UniProt P55055).
T2 sequence (P55055 222-460 limits assumed): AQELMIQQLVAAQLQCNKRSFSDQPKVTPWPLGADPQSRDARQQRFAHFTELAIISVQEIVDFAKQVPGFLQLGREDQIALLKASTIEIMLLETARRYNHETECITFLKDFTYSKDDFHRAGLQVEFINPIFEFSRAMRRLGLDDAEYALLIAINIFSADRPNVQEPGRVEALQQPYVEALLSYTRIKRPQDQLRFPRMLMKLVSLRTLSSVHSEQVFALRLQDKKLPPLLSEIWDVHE
Description: NCOR2 corepressor binding to LXRβ, CRT. The test is classed as biochemical. Also noted: The CRT selectivity assay incorporates GST-tagged LXR-LBD; purchased Thermo Fisher Scientific PV4660. Particulars: read-out: NCOR2β, relative % activity at 1 μM.

Test [2] deals with sterol response element (SRE). Kind of test: SRE-luc reporter assay in HepG2 cells. The test is classed as cell-based, human. An outline of the steps: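 HepG2 cells stably carrying an SRE (LDLR) promoter–NlucP reporter, grown in medium with charcoal-stripped FBS. Treated with compounds for 24 hr at 37 °C, then lysed and nanoluciferase luminescence read.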
A general note: A reporter such as luciferase makes a cellular process visible.

In test [3] the target is T1, LXRα. Description: NCOR2 corepressor binding to LXRα, CRT. The format is biochemical. Also noted: The CRT selectivity assay incorporates GST-tagged LXR-LBD; purchased Thermo Fisher Scientific PV4657. The conditions noted are these: read-out: NCOR2α, relative % activity at 1 μM.
The next test relates to SREBF1, FAS, and SCD1. Description: RT-PCR of lipogenic genes SREBF1, FAS, SCD1 in HepG2 cells. The format is cell-based, human. Particulars: HepG2, same conditions as SRE-luc. How it is done: Three of the biphenyl sulfones, XL041, XL652, and SR9238, gave anomalous activation data at concentrations above 1 µM, associated with interference with the nanoluciferase reporter (Figure 5—figure supplement 1). Owing to the anomalous response in the reporter assay, we measured lipogenic genes, SREBF1, FAS, and SCD1 by RT-PCR in HepG2 cells in response to treatment with the biphenyl sulfones (Figure 5G–I).
HepG2 cells were seeded in 12-well plates and treated with compounds for 24 hr. Following treatment, cells were washed once with PBS and then lysed in 350 μL of RLT buffer (Qiagen). Lysates were immediately frozen at −80 °C until RNA extraction. Total RNA was extracted using RNeasy Plus Mini columns (Qiagen) according to the manufacturer’s instructions. RNA concentration and purity were assessed using the A260/A280 ratio measured on a Synergy Neo2 plate reader (BioTek). […] Quantitative PCR was performed using TaqMan Gene Expression Master Mix (Invitrogen) with 2 μL of cDNA and gene-specific TaqMan probes in a 20 μL reaction volume per well. The following TaqMan assays were used: ABCA1: Hs01059101_m1, SREBF1: Hs01088691_m1, SCD: Hs01682761_m1, FASN: Hs01005622_m1, and HPRT1 (endogenous control): Hs02800695_m1. qPCR was performed on a StepOne Real-Time PCR System (Applied Biosystems), and gene expression was quantified using the ΔΔCt method.

Turning to `Cc1cc(C)c(S(=O)(=O)N(Cc2ccc(-c3cccc(S(C)(=O)=O)c3)cc2)Cc2ccc(C(F)(F)F)o2)c(C)c1` [GSK2033], at LXRα [1], the “Antagonism of 24HC agonism at LXRα (SRC-1 CRT)” value was “without effect on LXRα”. Further, the activity at 1 µM on LXRβ stood at 57.7%; on LXRα [3] (ligand 1 µM, interpolated from concentration-response, normalized, heat map Figure 9A), 97.7%. Besides, in test [2], the “SRE activation response/phenotype in HepG2” value is “neutral or antagonist response”. The “Lipogenic gene transcription (SREBF1, FAS, SCD1) by RT-PCR” value in the test on SREBF1, FAS, and SCD1 was “reducing lipogenic gene transcription below baseline”.

Consider `CCOC(=O)c1ccc(CN(Cc2ccc(-c3cccc(S(C)(=O)=O)c3)cc2)S(=O)(=O)c2c(C)cc(C)cc2C)o1` [SR9238], for which, on LXRα [1], the “Antagonism of 24HC agonism at LXRα (SRC-1 CRT)” value is listed as “without effect on LXRα”. The activity at 1 µM at LXRβ stood at 21.9%; at LXRα [3] it was 64.5%. Moreover, the “SRE activation response/phenotype in HepG2” value in test [2] is listed as “lowered SRE activation below baseline; also recorded: neutral or antagonist response; also recorded: inverse agonist at <3 µM concentration”. Also, the “Lipogenic gene transcription (SREBF1, FAS, SCD1) by RT-PCR” value in the test on SREBF1, FAS, and SCD1 is “reducing lipogenic gene transcription below baseline”.
